Source: PubChem BioAssay (NCI)
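Five concentrations, 48 hours, 96-well plates. TGI: concentration producing complete growth inhibition.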

How the values were obtained:
Assay in all cases: NCI-60 cell line screen, 48 h
786-0 renal = tested on: 786-0 renal
A498 renal = tested on: A498 renal
A549 NSCLC = tested on: A549 NSCLC
ACHN renal = tested on: ACHN renal
CAKI-1 renal = tested on: CAKI-1 renal
CCRF-CEM leukemia = tested on: CCRF-CEM leukemia
COLO 205 colon = tested on: COLO 205 colon
DMS 114 small cell lung = tested on: DMS 114 small cell lung
DMS 273 small cell lung = tested on: DMS 273 small cell lung
EKVX NSCLC = tested on: EKVX NSCLC
HCC-2998 colon = tested on: HCC-2998 colon
HCT-116 colon = tested on: HCT-116 colon
HCT-15 colon = tested on: HCT-15 colon
HL-60(TB) leukemia = tested on: HL-60(TB) leukemia
HOP-18 NSCLC = tested on: HOP-18 NSCLC
HOP-62 NSCLC = tested on: HOP-62 NSCLC
HT29 colon = tested on: HT29 colon
IGROV1 ovarian = tested on: IGROV1 ovarian
K-562 leukemia = tested on: K-562 leukemia
KM12 colon = tested on: KM12 colon
KM20L2 colon = tested on: KM20L2 colon
LOX IMVI melanoma = tested on: LOX IMVI melanoma
LXFL 529 NSCLC = tested on: LXFL 529 NSCLC
M14 melanoma = tested on: M14 melanoma
M19-MEL melanoma = tested on: M19-MEL melanoma
MALME-3M melanoma = tested on: MALME-3M melanoma
MOLT-4 leukemia = tested on: MOLT-4 leukemia
NCI-H226 lung = tested on: NCI-H226 lung
NCI-H23 lung = tested on: NCI-H23 lung
NCI-H460 lung = tested on: NCI-H460 lung
NCI-H522 lung = tested on: NCI-H522 lung
OVCAR-3 ovarian = tested on: OVCAR-3 ovarian
OVCAR-4 ovarian = tested on: OVCAR-4 ovarian
OVCAR-5 ovarian = tested on: OVCAR-5 ovarian
OVCAR-8 ovarian = tested on: OVCAR-8 ovarian
RXF 393 renal = tested on: RXF 393 renal
RXF-631 renal = tested on: RXF-631 renal
SF-268 CNS = tested on: SF-268 CNS
SF-295 CNS = tested on: SF-295 CNS
SF-539 CNS = tested on: SF-539 CNS
SK-MEL-2 melanoma = tested on: SK-MEL-2 melanoma
SK-MEL-28 melanoma = tested on: SK-MEL-28 melanoma
SK-MEL-5 melanoma = tested on: SK-MEL-5 melanoma
SK-OV-3 ovarian = tested on: SK-OV-3 ovarian
SN12C renal = tested on: SN12C renal
SNB-19 CNS = tested on: SNB-19 CNS
SNB-75 CNS = tested on: SNB-75 CNS
SNB-78 CNS = tested on: SNB-78 CNS
SR leukemia = tested on: SR leukemia
SW-620 colon = tested on: SW-620 colon
TK-10 renal = tested on: TK-10 renal
U251 CNS = tested on: U251 CNS
UACC-257 melanoma = tested on: UACC-257 melanoma
UACC-62 melanoma = tested on: UACC-62 melanoma
UO-31 renal = tested on: UO-31 renal
XF 498 CNS = tested on: XF 498 CNS

Measured: TGI

CCOP(=O)(C/C(=N/NC(C)(C)C)C(=O)Nc1nc2ccc(C)cc2s1)OCC
> 100 µM: all assays above
